Results as given in patent US20090215895A1, “Therapeutic and carrier molecules” (PEPLIN BIOLIPIDS PTY LTD, priority 2004, published 2009).
Entries after “also recorded” stand apart in the source; their conditions may differ.

Assays:
HUVEC = experiment: Agonist-enhanced neutrophil adherence to HUVEC; format: cell-based, human; conditions: 20 μmol/l, 1 hr pre-treatment, TNF 4 hr
Experimental: FIG. 11 is a representation showing effect of β-oxa; β-thia and natural PUFA on TNF-enhanced neutrophil adherence to HUVEC. HUVEC were pre-treated with the fatty acids (20 μmol/l) for 60 min at 37° C. before being stimulated with TNF (125 U/200 μl medium) for 4 hr at 37° C. The cells were then co-incubated with neutrophils (5×10^5 cells/well) at 37° C. for 30 min and the degree of neutrophil adherence quantitated. The results are expressed as % of control and represent the mean±SEM of three separate experiments each performed in triplicate. * p<0.05, ***p<0.001, for significant differences between pre-treatment with fatty acid and control (one-way analysis of variance followed by the Dunnett test for multiple comparisons).
Adhesion of neutrophils, prepared by the rapid-single-step method (Ferrante et al, J. Immun. Methods 36:109-117, 1980), to HUVEC isolated from umbilical cords was carried out essentially as described (Huang et al, 1997 supra).
The magnitude of the suppressive effect of -MP3 was dependent on-pre-treatment time and concentration with significant effects observed with a pre-treatment time of 1 hr and a concentration of ≧5 μmol/l.

IκBα = experiment: TNF-induced degradation of IκBα in HUVEC (Western blot); format: cell-based; conditions: Homo sapiens, 20 μmol/l, 30 min pre-treatment, TNF 10 min
Experimental: FIG. 17 is a representation showing (A) the effect of MP3 (β-oxa 23:4n-6) and DHA on TNF-induced degradation of IκBα in HUVEC. Cells were pre-treated with the fatty acids (20 μmol/l) for 30 min and then stimulated with TNF (125 U/ml) for 10 min. After cell lysis the proteins were analyzed by Western blots using anti-IκBα antibodies. (B) The effects of β-oxa-23:4n-6 on TNF-induced activation of transcriptional factor, NFκB in HUVEC. Cells were pre-treated with β-oxa-23:4n-6 (20 μmol/l) for 30 min and then stimulated with TNF for 2 hr. After cell lysis, nuclear fractions were prepared, nuclear proteins separated by SDS PAGE (12% w/v gel), transferred to nitrocellulose and probed with an anti-NFκB p65 antibody (Santa Cruz). […] (C) The effect of β-oxa 23:4n-6 on TNF-stimulated activation of IKK. Cells were pre-treated with β-oxa 23:4n-6 (20 μmol/l) for 30 min and then stimulated with TNF for 5 min. After cell lysis IKK was immunoprecipitated with anti-IKKα antibody and kinase activity determined. […]
Proteins (50 μg) were separated by SDS PAGE (12% w/v gel), transferred to nitrocellulose and probed with an anti-NFκB p65 or anti-IκBα antibody (Santa Cruz Biotech, Santa Cruz, Calif.). Immunocomplexes were detected by enhanced chemiluminescence (Hii et al, 1998 supra).

cancer cells = experiment: Killing of cancer cells; format: cell-based
PKC isozyme δ = biological target: T1, PKC isozyme δ (Homo sapiens, UniProt Q05655); experiment: PMA-induced PKC translocation in HL-60 cells (Western blot); format: cell-based; set-up: key: +++: strong inhibition of PKC activation; −: no inhibition of PKC activation; conditions: 20 μM, 60 min
T1 construct: endogenous in cells; host or cells: HL-60
T1 sequence (Q05655 whole entry): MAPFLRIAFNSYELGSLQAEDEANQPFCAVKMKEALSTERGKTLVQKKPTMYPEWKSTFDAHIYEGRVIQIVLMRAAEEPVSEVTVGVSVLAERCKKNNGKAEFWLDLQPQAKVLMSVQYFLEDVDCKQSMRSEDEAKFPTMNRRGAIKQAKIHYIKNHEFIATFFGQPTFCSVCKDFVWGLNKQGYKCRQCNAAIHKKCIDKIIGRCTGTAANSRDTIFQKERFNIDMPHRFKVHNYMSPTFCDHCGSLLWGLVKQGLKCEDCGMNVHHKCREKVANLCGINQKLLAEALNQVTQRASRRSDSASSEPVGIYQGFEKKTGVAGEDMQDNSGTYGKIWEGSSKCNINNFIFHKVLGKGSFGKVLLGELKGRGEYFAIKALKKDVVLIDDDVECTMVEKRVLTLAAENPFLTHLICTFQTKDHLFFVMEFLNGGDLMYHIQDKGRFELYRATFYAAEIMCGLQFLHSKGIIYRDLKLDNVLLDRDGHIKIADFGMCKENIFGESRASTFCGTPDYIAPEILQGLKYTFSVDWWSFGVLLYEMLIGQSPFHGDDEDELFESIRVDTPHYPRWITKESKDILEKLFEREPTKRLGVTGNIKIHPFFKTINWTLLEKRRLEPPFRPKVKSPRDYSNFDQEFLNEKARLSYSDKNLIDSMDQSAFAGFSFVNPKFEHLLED
Experimental: (§1) The effects of nitroanalogs of PUFAs on PKC activation were determined. Lx compounds at a concentration of 20 μM were incubated with the HL-60 cell line (final condition 10^6 cells/ml) for 60 min. PKC activation was then attempted to be induced by PMA. PKC enzyme translocation was quantitated by Western blot.

PKC isozyme ε = biological target: T2, PKC isozyme ε (Homo sapiens, UniProt Q02156); experiment: as above; format: cell-based; set-up: key: +++: strong inhibition of PKC activation; −: no inhibition of PKC activation; conditions: 20 μM, 60 min
T2 construct: endogenous in cells; host or cells: HL-60
T2 sequence (Q02156 1-737): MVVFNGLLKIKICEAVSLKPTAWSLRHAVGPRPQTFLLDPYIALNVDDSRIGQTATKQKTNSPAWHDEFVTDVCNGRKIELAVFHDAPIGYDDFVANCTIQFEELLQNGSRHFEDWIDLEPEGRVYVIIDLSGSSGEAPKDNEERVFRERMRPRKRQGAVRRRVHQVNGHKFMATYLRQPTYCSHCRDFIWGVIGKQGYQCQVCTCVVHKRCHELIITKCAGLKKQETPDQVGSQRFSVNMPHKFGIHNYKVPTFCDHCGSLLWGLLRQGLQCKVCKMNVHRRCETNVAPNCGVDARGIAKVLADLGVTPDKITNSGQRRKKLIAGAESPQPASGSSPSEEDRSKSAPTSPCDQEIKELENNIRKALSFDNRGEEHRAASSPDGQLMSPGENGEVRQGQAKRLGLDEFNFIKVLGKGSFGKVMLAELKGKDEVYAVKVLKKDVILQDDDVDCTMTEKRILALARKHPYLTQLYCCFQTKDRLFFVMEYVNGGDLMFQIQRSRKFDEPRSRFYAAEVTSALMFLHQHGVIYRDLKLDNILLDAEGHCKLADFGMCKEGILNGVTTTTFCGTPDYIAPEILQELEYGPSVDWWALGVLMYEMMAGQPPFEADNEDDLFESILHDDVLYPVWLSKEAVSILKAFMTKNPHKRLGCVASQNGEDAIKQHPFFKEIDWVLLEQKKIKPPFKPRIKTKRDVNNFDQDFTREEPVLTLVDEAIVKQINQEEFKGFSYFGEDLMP
Experimental: as §1

PKC isozyme β2 = biological target: T3, PKC isozyme β2 (Homo sapiens, UniProt P05771); experiment: as above; format: cell-based; set-up: key: +++: strong inhibition of PKC activation; −: no inhibition of PKC activation; conditions: 20 μM, 60 min
T3 construct: endogenous in cells; host or cells: HL-60
T3 sequence (P05771 1-673 isoform P05771-2): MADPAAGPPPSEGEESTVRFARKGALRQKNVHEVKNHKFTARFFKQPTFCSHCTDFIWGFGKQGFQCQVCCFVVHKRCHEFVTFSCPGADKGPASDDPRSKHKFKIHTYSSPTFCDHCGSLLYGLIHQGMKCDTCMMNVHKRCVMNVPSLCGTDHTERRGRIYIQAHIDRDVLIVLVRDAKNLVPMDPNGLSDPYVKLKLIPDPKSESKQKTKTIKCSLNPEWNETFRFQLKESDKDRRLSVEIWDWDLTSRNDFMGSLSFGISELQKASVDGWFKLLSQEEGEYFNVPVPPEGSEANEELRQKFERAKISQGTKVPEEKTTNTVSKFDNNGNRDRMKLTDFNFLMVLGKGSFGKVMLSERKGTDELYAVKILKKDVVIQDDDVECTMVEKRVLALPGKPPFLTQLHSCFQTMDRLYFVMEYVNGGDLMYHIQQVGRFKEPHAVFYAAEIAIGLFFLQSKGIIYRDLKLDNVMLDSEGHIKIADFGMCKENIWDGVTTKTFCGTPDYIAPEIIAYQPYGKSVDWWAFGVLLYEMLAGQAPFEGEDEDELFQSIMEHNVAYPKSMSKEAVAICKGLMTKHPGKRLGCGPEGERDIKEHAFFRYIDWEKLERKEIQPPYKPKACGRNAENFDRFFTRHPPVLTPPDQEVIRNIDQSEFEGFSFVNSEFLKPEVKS
Experimental: as §1

PKC isozyme α = biological target: T4, PKC isozyme α (Homo sapiens, UniProt P17252); experiment: as above; format: cell-based; set-up: key: +++: strong inhibition of PKC activation; −: no inhibition of PKC activation; conditions: 20 μM, 60 min
T4 construct: endogenous in cells; host or cells: HL-60
Experimental: as §1

E-selectin = experiment: Adhesion molecule expression on HUVEC (ELISA, mRNA slot blot); format: cell-based, human; conditions: 20 μmol/l, 60 min pre-treatment
Experimental: (§2) FIG. 13 is a representation showing effect of MP3 (β-oxa-23:4n-6) and 20:4n-6 on time-related changes in TNF-α-induced E-selectin, ICAM-1 and VCAM-1 expression on HUVEC. HUVEC were pre-treated with 20 μmol/l β-oxa-23:4n-6 (closed triangles), 20 μmol/l 20:4n-6 (open squares), or DPC (control) for 60 min and then further incubated with TNF-α (125 U/200 μl medium) for up to 24 hr. The expression of E-selectin, ICAM-1 and VCAM-1 adhesion molecules was determined by ELISA. The results are expressed as % of control and represent the mean±SEM of three separate experiments each performed in triplicate. * p<0.05, **p<0.01, ***p<0.001, for significant differences between pre-treatment with fatty acid and corresponding control at a particular time point (one-way analysis of variance followed by the Dunnett test for multiple comparisons). Inset: The effect of β-oxa-23:4n-6 on TNF-α-induced expression of E-selectin mRNA in HUVEC. HUVEC were pre-incubated with β-oxa-23:4n-6 (20 μmol/l) or DPC (control) in 1 ml of medium at 37° C. for 60 min. After the addition of TNF-α, the cells were further incubated at 37° C. for 2 hr. E-selectin mRNA expression was then determined and the results expressed as relative %. Results are the mean±SEM of three separate experiments each performed in quadruplicate. *p<0.0001, for significant differences between pre-treatment with β-oxa-23:4n-6, and control (two-tailed Student's t-test for unpaired data).
(§3) HUVEC were stimulated with TNF, bacterial lipopolysaccharide (LPS) or PMA for 24 hr. Expression of E-selectin, ICAM-1 and VCAM-1 was determined by an enzyme-linked immunosorbent assay (ELISA) or as mRNA using a slot blot technique (Huang et al 1997 supra).

ICAM-1 = experiment: Adhesion molecule expression on HUVEC (ELISA); format: cell-based, human; conditions: 20 μmol/l, 60 min pre-treatment
Experimental: as §2, §3

VCAM-1 = experiment: Adhesion molecule expression on HUVEC (ELISA); format: cell-based, human; conditions: 20 μmol/l, 60 min pre-treatment
Experimental: as §2, §3

neutrophil NADPH oxidase = experiment: Neutrophil respiratory burst (NADPH oxidase activation, chemiluminescence); format: cell-based, human; conditions: 20 μM, 10 min, lucigenin-dependent chemiluminescence
Experimental: The structure of PT2 is shown in (c) above. In this screening assay, neutrophils were prepared from the blood of healthy volunteers. Freshly collected blood was layered onto a Hypaque-Ficoll medium of density 1.114 and centrifuged at 400 g for 30 mins at room temperature. After centrifugation, the leukocytes resolved into two distinct bands, with neutrophils being present in the second band (Ferrante and Thong, J. Immun. Methods 48:81-85, 1982).
Activation of the neutrophil NADPH oxidase was measured by lucigenin-dependent chemiluminescence following a 10 min incubation of PT2 (20 μM, final concentration) with 1×10^6 neutrophils from different donors (Power et al, J. Immunol. 159:2952-2959, 1997). Arachidonic acid (20:4, n-6) was used as a positive stimulator of the oxidase
Neutrophil respiratory burst was determined as previously described (Li et al, J. Clin. Invest. 97:1605-1609, 1996).

[1] = PQ (phenylquinolic acid) writhing test; format: in vivo; conditions: intraperitoneal, 30 min before pain stimulus
Experimental: (§4) Investigations of the effects of PT2 on pain induced by phenylquinolic acid (PQ writhing) and formalin have been made. In both the PQ writhing test (FIG. 3) and the formalin algesia test (FIG. 4), PT2 administered by intraperitoneal inoculation reduced pain and compared favourably with pain reduction by aspirin (oral, 100 mg/kg). In these tests, the EPUFA was administered 30 min before the pain stimulus and effects recorded over the following 20 min.

[2] = Formalin-induced pain test (hind paw licking time); format: in vivo; conditions: for % inhibition of pain response, Phase I (0-5 mins) / % inhibition of pain response, Phase II (15-20 mins): 30 min prior to formalin, mean of 5 animals
Experimental: as §4
Investigations of PT2 in the formalin-induced analgesia model looking specifically at the biphasic response have also been undertaken and are shown in Table 1. It is well documented that in this model, aspirin suppresses only pain related to the inflammatory process (15-20 mins post-administration of formalin), while morphine suppresses pain in both phases of the response (0-5 min and 15-20 min).
Compounds were administered intraperationedly (ip) 30 min prior to the administration of formalin (0.02 ml, 1% solution) via subplantar injection into the right hind paw. Reduction of the induced hind paw licking time recorded during the following 0-5 min period (Phase I response) or 15-20 min period (Phase II response) was determined. The data in Table 1 are the mean responses of 5 animals in each group.

[3] = In vitro assays (not specified)

Compound: CC/C=C\C/C=C\C/C=C\C/C=C\C/C=C\C/C=C\CCC(=O)O [22:6n-3, docosahexaenoic acid, reference compound]
- Inhibition of TNF-α-enhanced neutrophil adhesion to HUVEC (HUVEC): no significant effect
- inhibition at 20 µM (IκBα): < 50%

Compound: CCCCCCCCCCCCCCCCCC(CCC(=O)O)(CCC(=O)O)[N+](=O)[O-] [Lx8]
- Killing of cancer cells (cancer cells): kills cells very poorly
- Inhibition of PKC activation, isozyme δ (PKC isozyme δ): +++
- Inhibition of PKC activation, isozyme ε (PKC isozyme ε): +++
- Inhibition of PKC activation, isozyme β2 (PKC isozyme β2): +++
- Inhibition of PKC activation, isozyme α (PKC isozyme α): +++

Compound: CCCCC/C=C\C/C=C\C/C=C\C/C=C\CCCC(CCC(=O)O)(CCC(=O)O)[N+](=O)[O-] [Lx9]
- Killing of cancer cells (cancer cells): strong in killing cancer cells
- Inhibition of PKC activation, isozyme β2 (PKC isozyme β2): +++
- Inhibition of PKC activation, isozyme α (PKC isozyme α): −

Compound: CCCCC/C=C\C/C=C\C/C=C\C/C=C\CCCC(=O)O [arachidonic acid, reference compound]
- Suppression of TNF-α-induced E-selectin expression on HUVEC (E-selectin): no significant effect
- Inhibition of TNF-α-enhanced neutrophil adhesion to HUVEC (HUVEC): no significant effect
- Suppression of TNF-α-induced ICAM-1 expression on HUVEC (ICAM-1): no significant effect
- Suppression of TNF-α-induced VCAM-1 expression on HUVEC (VCAM-1): no significant effect
- Stimulation of the neutrophil respiratory burst (neutrophil NADPH oxidase): able to elicit a strong respiratory burst

Compound: CCCCC/C=C\C/C=C\C/C=C\C/C=C\CCCC(=O)NC(CC(=O)O)C(=O)O (centres unmarked) [PT2]
- Pain reduction in PQ writhing test [1]: reduced pain
- Stimulation of the neutrophil respiratory burst (neutrophil NADPH oxidase): lacks the ability to stimulate the neutrophil respiratory burst
- % inhibition of pain response, Phase I (0-5 mins) ([2]; 30 mg/kg ip): 0%
- % inhibition of pain response, Phase II (15-20 mins) ([2]; 30 mg/kg ip): 41%
- % inhibition of pain response, Phase I (0-5 mins) ([2]; 100 mg/kg ip): 30%
- % inhibition of pain response, Phase II (15-20 mins) ([2]; 100 mg/kg ip): 97%
- Pain reduction in formalin test ([2]; intraperitoneal, 30 min before pain stimulus): reduced pain; also recorded: acts similarly to aspirin in having its major effect on the later phase of the pain response

Compound: β-oxa-23:0 [MP1]
- Biological activity in in vitro assays [3]: biologically inactive
